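Five concentrations, 48 hours, 96-well plates. Here, GI50 denotes the concentration required for 50% inhibition of growth.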 The source made the active and inactive calls. Rule as the data show it: active = GI50 up to about 1.1 µM and inactive = higher.
Tests used:
Test in all cases: DTP human tumour cell line panel, 48 h
[1] = system: NCI-H226
[2] = system: Hs-578T
[3] = system: OVCAR-5
[4] = system: MDA-MB-435
[5] = system: SNB-75
[6] = system: A498
[7] = system: K562
[8] = system: PC-3
[9] = system: SW-620
[10] = system: SK-OV-3
[11] = system: COLO 205
[12] = system: LOX IMVI
[13] = system: HOP-92
[14] = system: NCI/ADR-RES
[15] = system: RPMI-8226
[16] = system: CCRF-CEM
[17] = system: OVCAR-3
[18] = system: SF-295
[19] = system: UACC-62
[20] = system: ACHN
[21] = system: UACC-257
[22] = system: SK-MEL-28
[23] = system: HCT-15
[24] = system: SNB-19
[25] = system: M14
[26] = system: A549
[27] = system: HOP-62
[28] = system: HT-29
[29] = system: RXF 393
[30] = system: EKVX
[31] = system: Malme-3M
[32] = system: 786-0
[33] = system: SK-MEL-2
[34] = system: SK-MEL-5
[35] = system: SF-539
[36] = system: SF-268
[37] = system: NCI-H522
[38] = system: BT-549
[39] = system: MCF7
[40] = system: UO-31
[41] = system: TK-10
[42] = system: NCI-H23
[43] = system: T47D
[44] = system: IGROV-1
[45] = system: SN12C
[46] = system: HCT-116
[47] = system: U-251
[48] = system: OVCAR-8
[49] = system: OVCAR-4
[50] = system: CAKI-1
[51] = system: DU-145
[52] = system: MOLT-4
[53] = system: HL-60
[54] = system: NCI-H460
[55] = system: MDA-MB-231
[56] = system: HCC 2998
[57] = system: KM12

O=S(=O)(c1ccc(NC(=S)N/N=C/c2ccccc2O)cc1)N1CCCCC1
GI50 [1]: 151 nM (active)
GI50 [2]: 1910 nM (inactive)
GI50 [3]: 269 nM (active)
GI50 [4]: 302 nM (active)
GI50 [5]: 1360 nM (inactive)
GI50 [6]: 264 nM (active)
GI50 [7]: 341 nM (active)
GI50 [8]: 191 nM (active)
GI50 [9]: < 10 nM (active)
GI50 [10]: 390 nM (active)
GI50 [11]: 773 nM (active)
GI50 [12]: < 10 nM (active)
GI50 [13]: 12200 nM (inactive)
GI50 [14]: 67.6 nM (active)
GI50 [15]: 214 nM (active)
GI50 [16]: < 23 nM (active)
GI50 [17]: < 49.8 nM (active)
GI50 [18]: 65.6 nM (active)
GI50 [19]: < 10 nM (active)
GI50 [20]: < 10 nM (active)
GI50 [21]: 735 nM (active)
GI50 [22]: 1210 nM (inactive)
GI50 [23]: < 10 nM
GI50 [24]: 879 nM (active)
GI50 [25]: 77.1 nM (active)
GI50 [26]: 255 nM (active)
GI50 [27]: 114 nM (active)
GI50 [28]: 7730 nM (inactive)
GI50 [29]: 56800 nM (inactive)
GI50 [30]: 1290 nM (inactive)
GI50 [31]: 181 nM (active)
GI50 [32]: 188 nM (active)
GI50 [33]: 459 nM (active)
GI50 [34]: < 10 nM (active)
GI50 [35]: 326 nM (active)
GI50 [36]: 44.6 nM (active)
GI50 [37]: 1610 nM (inactive)
GI50 [38]: 37800 nM (inactive)
GI50 [39]: 255 nM (active)
GI50 [40]: 1290 nM (inactive)
GI50 [41]: < 45.7 nM (active)
GI50 [42]: 281 nM (active)
GI50 [43]: 419 nM (active)
GI50 [44]: 1730 nM (inactive)

C[C@H]1CN[C@@H]2[C@@H](C)[C@H]3[C@@H](C[C@H]4[C@@H]5CC[C@H]6C[C@@H](N)CC[C@]6(C)[C@H]5CC[C@]34C)O[C@@]2(O)C1
GI50 [45]: 1420 nM (inactive)
GI50 [1]: 2380 nM (inactive)
GI50 [2]: 1910 nM (inactive)
GI50 [3]: 5470 nM (inactive)
GI50 [4]: 1600 nM (inactive)
GI50 [5]: 2440 nM (inactive)
GI50 [6]: 142 nM (active)
GI50 [7]: 1910 nM (inactive)
GI50 [46]: 1290 nM (inactive)
GI50 [8]: 2790 nM (inactive)
GI50 [47]: 1670 nM (inactive)
GI50 [9]: 2250 nM (inactive)
GI50 [48]: 2040 nM (inactive)
GI50 [10]: 6670 nM (inactive)
GI50 [11]: 1510 nM (inactive)
GI50 [12]: 1730 nM (inactive)
GI50 [13]: 2470 nM (inactive)
GI50 [14]: 2540 nM (inactive)
GI50 [15]: 2280 nM (inactive)
GI50 [16]: 561 nM (active)
GI50 [17]: 2030 nM (inactive)
GI50 [18]: 2920 nM (inactive)
GI50 [19]: 1950 nM (inactive)
GI50 [20]: 2650 nM (inactive)
GI50 [49]: 3750 nM (inactive)
GI50 [50]: 2370 nM (inactive)
GI50 [51]: 4030 nM (inactive)
GI50 [21]: 1850 nM (inactive)
GI50 [52]: 1690 nM (inactive)
GI50 [22]: 1770 nM (inactive)
GI50 [23]: 1380 nM
GI50 [53]: 1640 nM (inactive)
GI50 [24]: 2070 nM (inactive)
GI50 [54]: 2320 nM (inactive)
GI50 [25]: 2040 nM (inactive)
GI50 [26]: 3800 nM (inactive)
GI50 [55]: 1900 nM (inactive)
GI50 [28]: 1190 nM (inactive)
GI50 [30]: 3340 nM (inactive)
GI50 [31]: 1640 nM (inactive)
GI50 [32]: 1690 nM (inactive)
GI50 [33]: 3060 nM (inactive)
GI50 [56]: 1800 nM (inactive)
GI50 [34]: 3040 nM (inactive)
GI50 [35]: 1270 nM (inactive)
GI50 [36]: 1500 nM (inactive)
GI50 [37]: 2240 nM (inactive)
GI50 [38]: 2190 nM (inactive)
GI50 [39]: 4180 nM (inactive)
GI50 [40]: 2250 nM (inactive)
GI50 [41]: 2530 nM (inactive)
GI50 [42]: 12900 nM (inactive)
GI50 [43]: 2230 nM (inactive)
GI50 [44]: 2150 nM (inactive)
GI50 [57]: 1910 nM (inactive)

Source: ChEMBL document CHEMBL1201862, “PubChem BioAssay data set” (2004)
